Experiment [1] has as its target Tyrosine-protein kinase Lck (Homo sapiens) (UniProt P06239). Kind of experiment: Inhibition of LCK (unknown origin) at 1 uM relative to control.
Experiment [2] addresses Tyrosine-protein kinase Tec (Homo sapiens) (UniProt P42680). As to the kind of experiment: Inhibition of TEC (unknown origin) at 1 uM relative to control.
The target in experiment [3] is T1, Tyrosine-protein kinase TXK (Homo sapiens) (UniProt P42681).
T1 sequence (whole entry): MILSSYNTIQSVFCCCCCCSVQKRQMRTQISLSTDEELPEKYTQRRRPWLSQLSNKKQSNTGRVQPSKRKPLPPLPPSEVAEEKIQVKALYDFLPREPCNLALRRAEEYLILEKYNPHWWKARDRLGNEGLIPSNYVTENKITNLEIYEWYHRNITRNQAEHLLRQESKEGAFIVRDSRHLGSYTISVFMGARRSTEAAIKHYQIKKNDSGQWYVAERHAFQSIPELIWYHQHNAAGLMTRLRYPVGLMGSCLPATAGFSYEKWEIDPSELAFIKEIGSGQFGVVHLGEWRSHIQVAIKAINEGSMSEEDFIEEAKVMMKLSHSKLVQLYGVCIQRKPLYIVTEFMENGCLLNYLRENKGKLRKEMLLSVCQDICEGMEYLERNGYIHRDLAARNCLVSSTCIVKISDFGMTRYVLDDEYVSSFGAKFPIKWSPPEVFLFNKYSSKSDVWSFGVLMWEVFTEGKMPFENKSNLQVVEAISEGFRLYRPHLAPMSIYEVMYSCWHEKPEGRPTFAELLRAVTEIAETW
Kind of experiment: Inhibition of TXK (unknown origin) at 1 uM relative to control.

Experiment [4] concerns the target Tyrosine-protein kinase Blk (Homo sapiens) (UniProt P51451). As to the kind of experiment: Inhibition of BLK (unknown origin) at 1 uM relative to control.
Experiment [5] concerns the target Tyrosine-protein kinase Fgr (Homo sapiens) (UniProt P09769). As to the kind of experiment: Inhibition of FGR (unknown origin) at 1 uM relative to control.
Experiment [6] deals with Receptor tyrosine-protein kinase erbB-4 (Homo sapiens) (UniProt Q15303). Kind of experiment: Inhibition of ERBB4 (unknown origin) at 1 uM relative to control.
Experiment [7] concerns the target Tyrosine-protein kinase BTK (Homo sapiens) (UniProt Q06187). Kind of experiment: Inhibition of BTK (unknown origin) at 1 uM relative to control.
For experiment [8], the target named is Protein-tyrosine kinase 6 (Homo sapiens) (UniProt Q13882). Kind of experiment: Inhibition of BRK (unknown origin) at 1 uM relative to control.
Experiment [9] deals with Tyrosine-protein kinase BTK (Homo sapiens) (UniProt Q06187). Kind of experiment: Inhibition of BTK phosphorylation in human JeKo-1 cells at 0.01 to 10 uM incubated for 2 hrs by Western blot analysis. The class given is cell-based. The conditions noted are these: dose 0.01-10 µM. Background: In western blotting, separated proteins are transferred to a membrane and probed.

As usually defined, the inhibition is the relative decrease from the control value, in per cent.

Activity calls are given as the source filed them. The rule behind the calls is not given here.

Tyrosine-protein kinase BTK (Homo sapiens), sequence (Q06187 whole entry): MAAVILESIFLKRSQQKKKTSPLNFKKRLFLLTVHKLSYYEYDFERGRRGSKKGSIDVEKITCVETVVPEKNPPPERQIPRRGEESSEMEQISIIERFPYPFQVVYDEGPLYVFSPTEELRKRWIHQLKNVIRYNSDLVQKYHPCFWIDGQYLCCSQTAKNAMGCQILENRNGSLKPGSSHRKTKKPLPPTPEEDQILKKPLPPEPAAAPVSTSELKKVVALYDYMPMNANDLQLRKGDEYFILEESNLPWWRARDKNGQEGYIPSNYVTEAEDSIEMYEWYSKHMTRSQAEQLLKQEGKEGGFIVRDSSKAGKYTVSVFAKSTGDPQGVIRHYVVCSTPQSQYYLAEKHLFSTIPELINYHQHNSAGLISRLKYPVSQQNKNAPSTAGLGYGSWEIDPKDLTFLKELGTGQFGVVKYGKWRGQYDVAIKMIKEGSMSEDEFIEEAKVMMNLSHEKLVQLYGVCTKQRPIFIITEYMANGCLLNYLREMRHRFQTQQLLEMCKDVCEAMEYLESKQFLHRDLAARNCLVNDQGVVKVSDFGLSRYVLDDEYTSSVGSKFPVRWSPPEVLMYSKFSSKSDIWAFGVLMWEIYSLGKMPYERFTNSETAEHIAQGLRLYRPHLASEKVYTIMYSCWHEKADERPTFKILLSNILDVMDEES
Tyrosine-protein kinase Blk (Homo sapiens), sequence (P51451 2-505 limits assumed): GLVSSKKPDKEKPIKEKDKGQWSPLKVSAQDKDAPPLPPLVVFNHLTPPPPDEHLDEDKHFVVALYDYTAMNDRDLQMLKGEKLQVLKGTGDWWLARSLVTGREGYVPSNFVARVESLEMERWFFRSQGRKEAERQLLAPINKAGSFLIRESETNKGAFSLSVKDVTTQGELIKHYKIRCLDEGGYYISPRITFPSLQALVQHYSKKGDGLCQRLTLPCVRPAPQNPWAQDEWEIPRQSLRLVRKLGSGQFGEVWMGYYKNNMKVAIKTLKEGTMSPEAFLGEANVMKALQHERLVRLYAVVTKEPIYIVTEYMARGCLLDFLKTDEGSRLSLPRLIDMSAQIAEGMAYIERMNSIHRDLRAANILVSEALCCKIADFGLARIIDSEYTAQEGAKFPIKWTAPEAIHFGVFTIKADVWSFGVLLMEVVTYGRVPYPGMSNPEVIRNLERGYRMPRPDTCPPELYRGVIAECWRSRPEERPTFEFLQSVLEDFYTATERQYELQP
Tyrosine-protein kinase Fgr (Homo sapiens), sequence (P09769 2-529 limits assumed): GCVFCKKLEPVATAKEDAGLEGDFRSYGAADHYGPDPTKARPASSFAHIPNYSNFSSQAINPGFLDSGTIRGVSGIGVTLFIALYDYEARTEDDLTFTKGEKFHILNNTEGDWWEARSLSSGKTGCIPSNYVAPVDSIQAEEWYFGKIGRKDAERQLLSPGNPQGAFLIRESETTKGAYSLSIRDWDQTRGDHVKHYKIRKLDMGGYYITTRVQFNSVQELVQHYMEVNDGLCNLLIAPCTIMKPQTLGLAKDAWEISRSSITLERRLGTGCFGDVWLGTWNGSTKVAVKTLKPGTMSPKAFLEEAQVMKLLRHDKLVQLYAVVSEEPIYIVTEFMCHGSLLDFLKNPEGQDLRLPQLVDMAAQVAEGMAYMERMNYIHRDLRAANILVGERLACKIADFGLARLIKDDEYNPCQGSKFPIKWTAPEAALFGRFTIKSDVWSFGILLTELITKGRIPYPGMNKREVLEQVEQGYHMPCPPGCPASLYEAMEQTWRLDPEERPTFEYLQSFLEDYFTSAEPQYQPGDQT
Tyrosine-protein kinase Tec (Homo sapiens), sequence (P42680 whole entry, looked up): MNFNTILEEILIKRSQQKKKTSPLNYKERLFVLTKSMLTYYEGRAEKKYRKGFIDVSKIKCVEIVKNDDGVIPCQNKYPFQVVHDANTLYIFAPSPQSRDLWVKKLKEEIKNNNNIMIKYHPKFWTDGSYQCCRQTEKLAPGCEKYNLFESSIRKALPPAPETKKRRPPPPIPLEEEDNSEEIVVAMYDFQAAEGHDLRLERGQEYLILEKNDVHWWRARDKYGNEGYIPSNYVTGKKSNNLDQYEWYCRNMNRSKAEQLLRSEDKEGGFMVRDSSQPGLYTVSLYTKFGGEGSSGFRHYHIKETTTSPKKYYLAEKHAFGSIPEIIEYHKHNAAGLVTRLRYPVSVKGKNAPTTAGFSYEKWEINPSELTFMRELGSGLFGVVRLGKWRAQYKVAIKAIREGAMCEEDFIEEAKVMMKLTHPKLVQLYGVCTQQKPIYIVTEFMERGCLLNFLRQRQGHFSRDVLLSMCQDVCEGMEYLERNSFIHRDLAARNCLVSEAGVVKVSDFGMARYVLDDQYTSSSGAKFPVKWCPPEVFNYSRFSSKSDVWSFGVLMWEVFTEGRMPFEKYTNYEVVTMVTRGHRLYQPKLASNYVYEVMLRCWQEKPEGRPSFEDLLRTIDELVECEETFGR
Tyrosine-protein kinase Lck (Homo sapiens), sequence (P06239 2-509 limits assumed): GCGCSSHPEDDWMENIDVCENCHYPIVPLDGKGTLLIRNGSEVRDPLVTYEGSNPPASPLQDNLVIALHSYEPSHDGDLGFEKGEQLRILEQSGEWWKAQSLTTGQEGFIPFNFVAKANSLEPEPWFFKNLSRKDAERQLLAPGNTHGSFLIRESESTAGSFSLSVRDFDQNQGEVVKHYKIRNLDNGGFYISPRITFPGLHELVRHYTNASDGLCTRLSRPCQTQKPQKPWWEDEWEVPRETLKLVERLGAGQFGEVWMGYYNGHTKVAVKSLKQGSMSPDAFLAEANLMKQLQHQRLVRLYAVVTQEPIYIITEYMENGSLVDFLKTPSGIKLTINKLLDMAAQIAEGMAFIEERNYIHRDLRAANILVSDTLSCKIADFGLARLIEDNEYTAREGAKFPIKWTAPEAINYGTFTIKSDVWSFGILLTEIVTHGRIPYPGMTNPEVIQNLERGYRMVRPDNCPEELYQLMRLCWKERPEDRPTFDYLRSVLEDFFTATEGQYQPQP
Protein-tyrosine kinase 6 (Homo sapiens), sequence (Q13882 whole entry, looked up): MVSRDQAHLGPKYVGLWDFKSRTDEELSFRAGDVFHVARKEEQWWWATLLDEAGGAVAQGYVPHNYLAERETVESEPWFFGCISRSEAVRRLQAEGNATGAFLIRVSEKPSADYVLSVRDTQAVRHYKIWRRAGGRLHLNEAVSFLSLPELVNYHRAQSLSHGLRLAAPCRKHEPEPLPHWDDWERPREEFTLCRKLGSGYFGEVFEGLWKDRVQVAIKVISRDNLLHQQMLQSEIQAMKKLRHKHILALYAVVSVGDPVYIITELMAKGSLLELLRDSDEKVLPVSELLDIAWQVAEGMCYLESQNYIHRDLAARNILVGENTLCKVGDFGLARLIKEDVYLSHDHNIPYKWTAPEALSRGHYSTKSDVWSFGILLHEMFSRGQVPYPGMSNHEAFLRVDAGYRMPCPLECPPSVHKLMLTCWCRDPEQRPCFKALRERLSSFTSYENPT
Receptor tyrosine-protein kinase erbB-4 (Homo sapiens), sequence (Q15303 whole entry): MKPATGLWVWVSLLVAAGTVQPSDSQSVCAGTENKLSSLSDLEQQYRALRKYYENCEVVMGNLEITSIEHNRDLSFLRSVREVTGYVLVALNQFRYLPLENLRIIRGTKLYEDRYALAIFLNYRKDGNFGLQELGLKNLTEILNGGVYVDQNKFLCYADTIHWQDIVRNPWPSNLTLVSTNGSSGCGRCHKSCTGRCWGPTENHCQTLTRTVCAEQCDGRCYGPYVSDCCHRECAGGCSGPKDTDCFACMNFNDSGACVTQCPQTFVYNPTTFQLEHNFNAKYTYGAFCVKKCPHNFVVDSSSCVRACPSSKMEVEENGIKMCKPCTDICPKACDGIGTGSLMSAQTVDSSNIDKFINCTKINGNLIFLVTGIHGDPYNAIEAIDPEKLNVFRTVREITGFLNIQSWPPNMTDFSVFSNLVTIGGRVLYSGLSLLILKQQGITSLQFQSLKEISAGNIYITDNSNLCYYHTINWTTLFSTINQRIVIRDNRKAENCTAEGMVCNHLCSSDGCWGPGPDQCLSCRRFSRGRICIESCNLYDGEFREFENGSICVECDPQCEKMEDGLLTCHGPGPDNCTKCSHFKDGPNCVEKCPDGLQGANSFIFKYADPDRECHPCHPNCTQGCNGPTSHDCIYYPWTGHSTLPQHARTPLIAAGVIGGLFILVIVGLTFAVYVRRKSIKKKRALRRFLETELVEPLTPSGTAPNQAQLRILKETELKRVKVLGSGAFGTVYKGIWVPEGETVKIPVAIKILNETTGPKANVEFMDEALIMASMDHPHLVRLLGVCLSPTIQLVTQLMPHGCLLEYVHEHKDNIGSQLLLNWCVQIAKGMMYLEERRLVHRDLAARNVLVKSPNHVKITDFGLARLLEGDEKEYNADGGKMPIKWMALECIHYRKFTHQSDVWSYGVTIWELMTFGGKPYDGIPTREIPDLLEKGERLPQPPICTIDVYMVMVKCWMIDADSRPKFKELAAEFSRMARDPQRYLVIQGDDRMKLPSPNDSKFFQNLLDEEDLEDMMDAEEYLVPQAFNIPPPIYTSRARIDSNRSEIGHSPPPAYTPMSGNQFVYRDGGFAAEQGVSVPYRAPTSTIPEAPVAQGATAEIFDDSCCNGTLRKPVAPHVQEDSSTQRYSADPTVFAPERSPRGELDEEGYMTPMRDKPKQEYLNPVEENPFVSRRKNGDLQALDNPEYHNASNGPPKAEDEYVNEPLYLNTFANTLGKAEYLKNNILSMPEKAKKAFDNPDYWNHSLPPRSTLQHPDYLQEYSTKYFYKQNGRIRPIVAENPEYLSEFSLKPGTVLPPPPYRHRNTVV

As for `C=CC(=O)N1CCC[C@H](n2nc(-c3c(C)cc(Oc4ccccc4)cc3C)c3c(N)ncnc32)C1`, the inhibition is 50% in [1]; 10% in experiment [2]; 10% in experiment [3]; 10% in experiment [4]; 50% in experiment [5]; 10% in [6]. The inhibition in experiment [7] stood at 10%; in [8] it was 50%. For the same compound, the inhibition entry in [9] is “Active”.
Turning to `C=CC(=O)N1CCC[C@H](n2nc(-c3ccc(Oc4ccccc4)cc3C)c3c(N)ncnc32)C1`, in [9], the inhibition result was “Active”.

The record behind these values is ChEMBL document CHEMBL5257057.
